In the supplement of paper PMC10307832:

These cell lines were tested with C[C@@H](Oc1cc(-c2cnn(C3CCNCC3)c2)cnc1N)c1c(Cl)ccc(F)c1Cl [Crizotinib] + N=C(N)NC(=N)NCCc1ccccc1 [Phenformin] (partner 250 µM) (assay: relative viability (nuclei count vs DMSO), 5 days (fraction); higher = more cells survive). Conditions: first compound 0.01 µM.
Summary of the method: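 Dosing by pin tool came one day after lung cancer cell lines were seeded in 1536-well plates, using either one drug or a fixed anchor-drug dose plus five library-drug doses (not always all listed) in √10 steps. After 5 days, nuclei were counted on 4× images. Relative viability is treated-well nuclei count divided by vehicle-well nuclei count, and values are medians of duplicate plates.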

| Cell Line | relative viability |
| --- | --- |
| EMC-BAC-2 | 0.532 |
| EPLC-272H | 0.261 |
| H3255 | 0.348 |
| HARA | 0.468 |
| HCC-15 | 0.444 |
| HCC-44 | 0.225 |
| HCC-366 | 0.597 |
| HCC-827 | 0.359 |
| HOP-62 | 0.7 |
| LC-2-ad | 0.572 |
| LCLC-97TM1 | 0.472 |
| LCLC-103H | 0.348 |
| LK-2 | 0.583 |
| NCI-H358 | 0.231 |
| NCI-H522 | 0.702 |
| NCI-H596 | 0.754 |
| NCI-H650 | 0.392 |
| NCI-H661 | 0.257 |
| NCI-H1563 | 0.607 |
| NCI-H1623 | 0.557 |
| NCI-H2228 | 0.23 |
| NCI-H2342 | 0.512 |
| SW 900 | 0.556 |

Same assay, conditions: first compound 0.03162 µM

| Cell Line | relative viability |
| --- | --- |
| 201T | 0.48 |
| A549 | 0.136 |
| A-427 | 0.349 |
| ABC-1 | 0.22 |
| BEN | 0.253 |
| CAL-12T | 0.609 |
| COR-L23 | 0.409 |
| COR-L 105 | 0.516 |
| ChaGo-K-1 | 0.511 |
| EKVX | 0.241 |
| EMC-BAC-2 | 0.544 |
| EPLC-272H | 0.283 |
| H3255 | 0.424 |
| HARA | 0.501 |
| HCC-15 | 0.475 |
| HCC-44 | 0.263 |
| HCC-78 | 0.682 |

| Cell Line | relative viability |
| --- | --- |
| HCC-366 | 0.609 |
| HCC-827 | 0.397 |
| HOP-62 | 0.625 |
| LC-2-ad | 0.6 |
| LCLC-97TM1 | 0.468 |
| LCLC-103H | 0.313 |
| LK-2 | 0.37 |
| NCI-H358 | 0.324 |
| NCI-H522 | 0.612 |
| NCI-H596 | 0.859 |
| NCI-H650 | 0.451 |
| NCI-H661 | 0.269 |
| NCI-H1563 | 0.681 |
| NCI-H1623 | 0.499 |
| NCI-H2228 | 0.241 |
| NCI-H2342 | 0.567 |
| SW 900 | 0.651 |

Same assay, conditions: first compound 0.1 µM

| Cell Line | relative viability |
| --- | --- |
| 201T | 0.455 |
| A549 | 0.167 |
| A-427 | 0.419 |
| ABC-1 | 0.211 |
| BEN | 0.256 |
| CAL-12T | 0.606 |
| COR-L23 | 0.426 |
| COR-L 105 | 0.406 |
| ChaGo-K-1 | 0.486 |
| EKVX | 0.238 |
| EMC-BAC-2 | 0.569 |
| EPLC-272H | 0.302 |
| H3255 | 0.385 |
| HARA | 0.462 |
| HCC-15 | 0.479 |
| HCC-44 | 0.264 |
| HCC-78 | 0.772 |

| Cell Line | relative viability |
| --- | --- |
| HCC-366 | 0.65 |
| HCC-827 | 0.412 |
| HOP-62 | 0.731 |
| LC-2-ad | 0.544 |
| LCLC-97TM1 | 0.508 |
| LCLC-103H | 0.337 |
| LK-2 | 0.221 |
| NCI-H358 | 0.26 |
| NCI-H522 | 0.527 |
| NCI-H596 | 0.68 |
| NCI-H650 | 0.482 |
| NCI-H661 | 0.285 |
| NCI-H1563 | 0.655 |
| NCI-H1623 | 0.611 |
| NCI-H2228 | 0.29 |
| NCI-H2342 | 0.54 |
| SW 900 | 0.652 |

Same assay, conditions: first compound 0.3162 µM

| Cell Line | relative viability |
| --- | --- |
| 201T | 0.445 |
| A549 | 0.141 |
| ABC-1 | 0.238 |
| BEN | 0.235 |
| COR-L23 | 0.389 |
| COR-L 105 | 0.431 |
| ChaGo-K-1 | 0.329 |
| EKVX | 0.187 |
| EMC-BAC-2 | 0.253 |
| EPLC-272H | 0.29 |
| H3255 | 0.327 |
| HCC-44 | 0.173 |
| HCC-78 | 0.598 |
| HCC-827 | 0.346 |
| HOP-62 | 0.556 |
| LC-2-ad | 0.463 |
| LCLC-97TM1 | 0.454 |
| LCLC-103H | 0.328 |
| NCI-H358 | 0.309 |
| NCI-H522 | 0.768 |
| NCI-H596 | 0.761 |
| NCI-H650 | 0.365 |
| NCI-H661 | 0.266 |
| NCI-H1563 | 0.637 |
| NCI-H1623 | 0.608 |
| NCI-H2228 | 0.172 |
| NCI-H2342 | 0.549 |
| SW 900 | 0.586 |

Same assay, conditions: first compound 1 µM

| Cell Line | relative viability |
| --- | --- |
| 201T | 0.726 |
| A549 | 0.172 |
| A-427 | 0.28 |
| ABC-1 | 0.269 |
| BEN | 0.257 |
| CAL-12T | 0.558 |
| COR-L23 | 0.428 |
| COR-L 105 | 0.492 |
| ChaGo-K-1 | 0.457 |
| EKVX | 0.221 |
| EMC-BAC-2 | 0.473 |
| EPLC-272H | 0.39 |
| H3255 | 0.334 |
| HARA | 0.47 |
| HCC-15 | 0.42 |
| HCC-44 | 0.13 |
| HCC-78 | 0.465 |

| Cell Line | relative viability |
| --- | --- |
| HCC-366 | 0.695 |
| HCC-827 | 0.397 |
| HOP-62 | 0.714 |
| LC-2-ad | 0.544 |
| LCLC-97TM1 | 0.441 |
| LCLC-103H | 0.294 |
| LK-2 | 0.325 |
| NCI-H358 | 0.347 |
| NCI-H522 | 0.649 |
| NCI-H596 | 0.754 |
| NCI-H650 | 0.44 |
| NCI-H661 | 0.264 |
| NCI-H1563 | 0.682 |
| NCI-H1623 | 0.551 |
| NCI-H2228 | 0.164 |
| NCI-H2342 | 0.544 |
| SW 900 | 0.723 |
